According to patent publication US11034658B2, “Pyridinyl pyrazoles as modulators of RORγT” (Janssen Pharmaceutica NV, priority 2018, dated 2021):
Marks after values point to notes of the source that are not given here.

What was measured:
[1] = target: human RORγt ligand binding domain (RORγt LBD) (Homo sapiens (Human), UniProt P51449); assay: RORγt ThermoFluor assay
Source text: ThermoFluor® is a fluorescence based assay that estimates ligand binding affinities by measuring the effect of a ligand on protein thermal stability (Pantoliano, M. W., Petrella, E. C., Kwasnoski, J. D., Lobanov, V. S., Myslik, J., Graf, E., Carver, T., Asel, E., Springer, B. A., Lane, P., and Salemme, F. R. (2001) High-density miniaturized thermal shift assays as a general strategy for drug discovery. J Biomol Screen 6, 429-40, and Matulis, D., Kranz, J. K., Salemme, F. R., and Todd, M. J. (2005) Thermodynamic stability of carbonic anhydrase: measurements of binding affinity and stoichiometry using ThermoFluor. Biochemistry 44, 5258-66). This approach is applicable to a wide variety of systems, and rigorous in theoretical interpretation through quantitation of equilibrium binding constants (KD).
The shift in the melting point described as a ΔTm is proportional to the concentration and affinity of the ligand. The compound potency may be compared as a rank order of either values at a single compound concentration or in terms of KD values, estimated from concentration response curves.
RORγt ThermoFluor® Assay Construct
For the RORγt construct used in the ThermoFluor® assay, numbering for the nucleotide sequences was based on the reference sequence for human RORγt, transcript variant 2, NCBI Accession: NM 001001523.1 (SEQ ID NO:1). Nucleotides 850-1635 (SEQ ID NO:2) coding for the wild type human RORγt ligand binding domain (RORγt LBD) were cloned into the pHIS1 vector, a modified pET E. coli expression vector (Accelagen, San Diego), containing an in-frame N-terminal His-tag and a TurboTEV protease cleavage site (ENLYFQG, SEQ ID NO:3) upstream of the cloned insert sequence. The amino acid sequence for the RORγt construct used in the Thermofluor® assay is shown as SEQ ID NO:4.
ThermoFluor® experiments were carried out using instruments owned by Janssen Research and Development, L.L.C. through its acquisition of 3-Dimensional Pharmaceuticals, Inc. 1,8-ANS (Invitrogen) was used as a fluorescent dye. Protein and compound solutions are dispensed into black 384-well polypropylene PCR microplates (Abgene) and overlayed with silicone oil (1 μL, Fluka, type DC 200) to prevent evaporation.
Bar-coded assay plates are robotically loaded onto a thermostatically controlled PCR-type thermal block and then heated at a typical ramp-rate of 1° C./min for all experiments. Fluorescence was measured by continuous illumination with UV light (Hamamatsu LC6) supplied via fiber optic and filtered through a band-pass filter (380-400 nm; >6 OD cutoff). Fluorescence emission of the entire 384-well plate was detected by measuring light intensity using a CCD camera (Sensys, Roper Scientific) filtered to detect 500±25 nm, resulting in simultaneous and independent readings of all 384 wells. Images were collected at each temperature, and the sum of the pixel intensity in a given area of the assay plate was recorded versus temperature. Reference wells contained RORγt without compounds, and the assay conditions were as follows:
Project compounds were arranged in a pre-dosed mother plate (Greiner Bio-one) wherein compounds are serially diluted in 100% DMSO by 1:2 from a high concentration of 10 mM over 12 columns within a series (column 12 is a reference well containing DMSO, no compound). The compounds were robotically dispensed directly into assay plates (1×=46 nL) using a Hummingbird capillary liquid handling instrument (Digilab). Following compound dispense, protein and dye in buffer was added to achieve the final assay volume of 3 μL, followed by 1 μL of silicone oil.
The binding affinity was estimated as described previously (Matulis, D., Kranz, J. K., Salemme, F. R., and Todd, M. J. (2005) Thermodynamic stability of carbonic anhydrase: measurements of binding affinity and stoichiometry using ThermoFluor®. Biochemistry 44, 5258-66) using the following thermodynamic parameters of protein unfolding:
Reference RORγt Tm: 47.8° C.

[2] = target: full-length human RORγt (GAL4-DBD-RORγt fusion) in HEK293T cells (Homo sapiens (Human), UniProt P51449); assay: RORγt (full-length human) reporter assay, conditions A or B; assay type: cell-based; details: for IC50: HEK293T cells, read-out: RORγt (FL) Reporter Assay A or B, IC50; for inhibition at 3 µM / RORγt (FL) Reporter Assay A or B, % inhibition: 3 μM compound concentration (footnote *)
Sequence of full-length human RORγt (GAL4-DBD-RORγt fusion) in HEK293T cells (P51449 other isoform, or with tags, fused parts or gaps): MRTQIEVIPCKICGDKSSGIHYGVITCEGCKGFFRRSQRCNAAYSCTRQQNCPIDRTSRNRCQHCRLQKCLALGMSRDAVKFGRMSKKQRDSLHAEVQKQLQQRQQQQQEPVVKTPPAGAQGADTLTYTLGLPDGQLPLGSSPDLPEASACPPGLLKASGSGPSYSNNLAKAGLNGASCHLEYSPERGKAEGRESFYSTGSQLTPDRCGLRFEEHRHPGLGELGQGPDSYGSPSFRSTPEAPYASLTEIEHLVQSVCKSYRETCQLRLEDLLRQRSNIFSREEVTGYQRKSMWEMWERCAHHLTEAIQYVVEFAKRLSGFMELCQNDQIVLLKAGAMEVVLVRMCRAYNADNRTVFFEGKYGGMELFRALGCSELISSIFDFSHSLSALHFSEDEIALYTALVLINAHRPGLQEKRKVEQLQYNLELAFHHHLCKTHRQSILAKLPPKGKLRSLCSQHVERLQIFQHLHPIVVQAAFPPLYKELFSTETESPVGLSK
Description: RORγt (Full-Length Human) Reporter Assay:
(§1) HEK293T cells were plated at 35,000 per well in 96-well plate in medium of DMEM with 10% FBS. […] After overnight (16 to 20 hours) incubation, media were removed and cells were lysed with 50 μL Glo Lysis Buffer (Promega) for 10-15 minutes followed by 10 minute incubation with 50 μL Dual Glo reagent (Promega) at room temperature. Firefly luciferase luminescence was measured using a BMG Pherastar plate reader. To each well, 50 μL Stop and Glo reagent was added and incubated for 10 minutes at room temperature. Renilla luminescence was measured using a BMG Pherastar plate reader. To calculate the effect of compounds on RORγt activity, firefly values were normalized against values of DMSO only and values of reference compound at saturating concentration, then further normalized against Renilla signals. IC50s were generated by plotting final Renilla normalized data against compound concentration and percent inhibition was calculated against DMSO control.
as §1, with “at 8750 cells” for “at 35,000”, “in 384-well” for “in 96-well”, “with 20” for “with 50”, “well, 20” for “well, 50”

[3] = HEK-293T, read-out: RORγt (FL) Reporter Assay A or B, % inhibition

Sequence of human RORγt ligand binding domain (RORγt LBD) (P51449 other isoform, or with tags, fused parts or gaps): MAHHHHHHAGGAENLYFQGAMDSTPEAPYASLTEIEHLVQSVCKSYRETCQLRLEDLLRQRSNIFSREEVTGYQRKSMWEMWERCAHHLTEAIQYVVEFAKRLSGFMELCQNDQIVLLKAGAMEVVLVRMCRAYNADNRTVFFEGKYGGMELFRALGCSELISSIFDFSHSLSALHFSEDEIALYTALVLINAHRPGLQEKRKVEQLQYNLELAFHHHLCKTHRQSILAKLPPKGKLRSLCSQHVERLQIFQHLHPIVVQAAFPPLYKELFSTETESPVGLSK

Kd [1] | IC50 [2] | inhibition at 3 µM [2, 3] | inhibition at 1 µM ([2]; HEK-293T, 1 μM compound concentration (footnote ***), read-out: RORγt (FL) Reporter Assay A or B, % inhibition) | RORγt (FL) Reporter Assay A or B, % inhibition [2] | Structure (SMILES)
40 nM | 730 nM | 72% | – | – | CCn1nc(C(=O)NC[C@@]2(O)CC[C@H](S(C)(=O)=O)C[C@@H]2O)c(Cl)c1-c1cnc(CC(C)(C)C(F)F)cc1OC(F)F (stereo in doubt) [Example 39, 4-Chloro-5-(6-(3,3-difluoro-2,2-dimethylpropyl)-4-(difluoromethoxy)pyridin-3-yl)-N-(((1S*,2S*,4S*)-1,2-dihydroxy-4-(methylsulfonyl)cyclohexyl)methyl)-1-ethyl-1H-pyrazole-3-carboxamide]
40 nM | 570 nM | 84% | – | – | CCn1nc(C(=O)NC[C@]2(O)CC[C@@H](S(C)(=O)=O)C[C@H]2O)c(Cl)c1-c1cnc(CC(C)(C)C(F)F)cc1OC(F)F (stereo in doubt) [Example 40, 4-Chloro-5-(6-(3,3-difluoro-2,2-dimethylpropyl)-4-(difluoromethoxy)pyridin-3-yl)-N-(((1R*,2R*,4R*)-1,2-dihydroxy-4-(methylsulfonyl)cyclohexyl)methyl)-1-ethyl-1H-pyrazole-3-carboxamide]
66 nM | 320 nM | – | 84% | – | CCn1nc(C(=O)NC[C@@]2(O)CC[C@H](S(C)(=O)=O)C[C@@H]2O)c(C)c1-c1cnc(CC(C)(C)C(F)F)cc1OC(F)F (stereo in doubt) [Example 43, 5-(6-(3,3-Difluoro-2,2-dimethylpropyl)-4-(difluoromethoxy)pyridin-3-yl)-N-(41S*,2S*,4S*)-1,2-dihydroxy-4-(methylsulfonyl)cyclohexyl)methyl)-1-ethyl-4-methyl-1H-pyrazole-3-carboxamide]
69 nM | 890 nM | 85% | – | – | CCn1nc(C(=O)NC[C@]2(O)CC[C@@H](S(C)(=O)=O)C[C@H]2O)c(C)c1-c1cnc(CC(C)(C)C(F)F)cc1OC(F)F (stereo in doubt) [Example 44, 5-(6-(3,3-Difluoro-2,2-dimethylpropyl)-4-(difluoromethoxy)pyridin-3-yl)-N-(((1R*,2R*,4R*)-1,2-dihydroxy-4-(methylsulfonyl)cyclohexyl)methyl)-1-ethyl-4-methyl-1H-pyrazole-3-carboxamide]
1.7 nM | 44 nM | 95% | – | – | CCn1nc(C(=O)NC[C@]2(O)CC[C@@H](S(C)(=O)=O)C[C@H]2O)c(Cl)c1-c1ccc(CC(C)(C)C(F)(F)F)nc1OC(F)F (stereo in doubt) [Example 47, 4-Chloro-5-(2-(difluoromethoxy)-6-(3,3,3-trifluoro-2,2-dimethylpropyl)pyridin-3-yl)-N-(((1R*,2R*,4R*)-1,2-dihydroxy-4-(methylsulfonyl)cyclohexyl)methyl)-1-ethyl-1H-pyrazole-3-carboxamide]
2 nM | 5.7 nM | 101% | – | – | CCn1nc(C(=O)NC[C@@]2(O)CC[C@H](S(C)(=O)=O)C[C@@H]2O)c(Cl)c1-c1ccc(CC(C)(C)C(F)(F)F)nc1OC(F)F (stereo in doubt) [Example 48, 4-Chloro-5-(2-(difluoromethoxy)-6-(3,3,3-trifluoro-2,2-dimethylpropyl)pyridin-3-yl)-N-(((1S*,2S*,4S*)-1,2-dihydroxy-4-(methylsulfonyl)cyclohexyl)methyl)-1-ethyl-1H-pyrazole-3-carboxamide]
11 nM | 110 nM | 116% | – | – | CCn1nc(C(=O)NC[C@]2(O)CC[C@@H](S(N)(=O)=O)CC2)c(Cl)c1-c1cnc(CC(C)(C)C(F)(F)F)cc1OC(F)F [Example 1, 4-Chloro-5-(4-(difluoromethoxy)-6-(3,3,3-trifluoro-2,2-dimethylpropyl)pyridin-3-yl)-1-ethyl-N-(((1s,4s)-1-hydroxy-4-sulfamoylcyclohexyl)methyl)-1H-pyrazole-3-carboxamide]
29 nM | 930 nM | 104% | – | – | CCn1nc(C(=O)NC[C@]2(O)CC[C@@H](S(N)(=O)=O)CC2)c(C)c1-c1cnc(CC(C)(C)C(F)(F)F)cc1OC(F)F [Example 2, 5-(4-(Difluoromethoxy)-6-(3,3,3-trifluoro-2,2-dimethylpropyl)pyridin-3-yl)-1-ethyl-N-(((1s,4s)-1-hydroxy-4-sulfamoylcyclohexyl)methyl)-4-methyl-1H-pyrazole-3-carboxamide]
8.7 nM | 430 nM | – | – | 79* % | CCn1nc(C(=O)NC[C@H]2CC[C@H](S(=O)(=O)NC(C)=O)CC2)c(Cl)c1-c1cnc(CC(C)(C)C(F)(F)F)cc1OC(F)F [Example 5, N-(((1r,4r)-4-(N-acetylsulfamoyl)cyclohexyl)methyl)-4-chloro-5-(4-(difluoromethoxy)-6-(3,3,3-trifluoro-2,2-dimethylpropyl)pyridin-3-yl)-1-ethyl-1H-pyrazole-3-carboxamide]
2.9 nM | 240 nM | – | – | 100* % | CCn1nc(C(=O)NC[C@H]2CC[C@H](S(=O)(=O)NC(N)=O)CC2)c(Cl)c1-c1cnc(CC(C)(C)C(F)(F)F)cc1OC(F)F [Example 7, N-(((1r,4r)-4-(N-carbamoylsulfamoyl)cyclohexyl)methyl)-4-chloro-5-(4-(difluoromethoxy)-6-(3,3,3-trifluoro-2,2-dimethylpropyl)pyridin-3-yl)-1-ethyl-1H-pyrazole-3-carboxamide]

Structure (SMILES) | Kd [1] | IC50 [2] | inhibition at 3 µM [2, 3] | inhibition at 1 µM ([2]; HEK-293T, 1 μM compound concentration (footnote ***), read-out: RORγt (FL) Reporter Assay A or B, % inhibition) | RORγt (FL) Reporter Assay A or B, % inhibition [2]
CCn1nc(C(=O)NC[C@H]2CC[C@H](S(=O)(=O)NC(=O)NC)CC2)c(Cl)c1-c1cnc(CC(C)(C)C(F)(F)F)cc1OC(F)F [Example 6, 4-Chloro-5-(4-(difluoromethoxy)-6-(3,3,3-trifluoro-2,2-dimethylpropyl)pyridin-3-yl)-1-ethyl-N-(((1r,4r)-4-(N-(methylcarbamoyl)sulfamoyl)cyclohexyl)methyl)-1H-pyrazole-3-carboxamide] | 1.9 nM | 270 nM | – | – | 87* %
